In the NIST ThermoML archive (doi:10.1021/je900387e):

Assay: xn = mol fraction of the nth substance listed
Conditions: Liquid, Pycnometric method

CCCCCl [1-chlorobutane] + O=C=O
Conditions | mass density [kg/m3]
322.7 K, 8980 kPa, x1 = 0.0243 | 377
322.7 K, 8990 kPa, x1 = 0.0744 | 690
322.7 K, 9050 kPa, x1 = 0.0243 | 387
322.7 K, 9110 kPa, x1 = 0.0243 | 397
322.7 K, 9120 kPa, x1 = 0.0981 | 754
322.7 K, 9140 kPa, x1 = 0.0744 | 698
322.7 K, 9170 kPa, x1 = 0.0243 | 407
322.7 K, 9240 kPa, x1 = 0.0243 | 418
322.7 K, 9280 kPa, x1 = 0.1488 | 802
322.7 K, 9290 kPa, x1 = 0.0744 | 705
322.7 K, 9300 kPa, x1 = 0.0981 | 759
322.7 K, 9320 kPa, x1 = 0.0243 | 430
322.7 K, 9390 kPa, x1 = 0.0243 | 443
322.7 K, 9470 kPa, x1 = 0.0243 | 456
322.7 K, 9470 kPa, x1 = 0.0744 | 713
322.7 K, 9500 kPa, x1 = 0.0981 | 764
322.7 K, 9560 kPa, x1 = 0.0243 | 470
322.7 K, 9600 kPa, x1 = 0.1488 | 807
322.7 K, 9630 kPa, x1 = 0.0243 | 482
322.7 K, 9700 kPa, x1 = 0.0243 | 494
322.7 K, 9700 kPa, x1 = 0.0744 | 721
322.7 K, 9720 kPa, x1 = 0.0981 | 769
322.7 K, 9740 kPa, x1 = 0.0243 | 501
322.7 K, 9790 kPa, x1 = 0.0243 | 507
322.7 K, 9810 kPa, x1 = 0.0243 | 510
322.7 K, 9940 kPa, x1 = 0.0744 | 729
322.7 K, 9950 kPa, x1 = 0.1488 | 811
322.7 K, 10080 kPa, x1 = 0.0981 | 777
322.7 K, 10210 kPa, x1 = 0.0744 | 738
322.7 K, 10310 kPa, x1 = 0.1488 | 815
322.7 K, 10480 kPa, x1 = 0.0981 | 785
322.7 K, 10520 kPa, x1 = 0.0744 | 746
322.7 K, 10730 kPa, x1 = 0.1488 | 820
322.7 K, 10870 kPa, x1 = 0.0744 | 755
322.7 K, 10920 kPa, x1 = 0.0981 | 792
322.7 K, 11110 kPa, x1 = 0.1488 | 823
322.7 K, 11230 kPa, x1 = 0.0744 | 764
322.7 K, 11440 kPa, x1 = 0.0981 | 802
322.7 K, 11540 kPa, x1 = 0.1488 | 828
322.7 K, 11680 kPa, x1 = 0.0744 | 773
322.7 K, 12000 kPa, x1 = 0.0981 | 810
322.7 K, 12020 kPa, x1 = 0.1488 | 832
322.7 K, 12170 kPa, x1 = 0.0744 | 782
322.7 K, 12270 kPa, x1 = 0.1488 | 835
322.7 K, 12520 kPa, x1 = 0.1488 | 837
322.7 K, 12600 kPa, x1 = 0.0981 | 818
322.7 K, 12720 kPa, x1 = 0.0744 | 792
322.7 K, 12780 kPa, x1 = 0.1488 | 839
322.7 K, 13030 kPa, x1 = 0.0981 | 824
322.7 K, 13270 kPa, x1 = 0.1488 | 844
322.7 K, 13320 kPa, x1 = 0.0744 | 802
322.7 K, 13530 kPa, x1 = 0.0981 | 830
322.7 K, 13570 kPa, x1 = 0.1488 | 846
322.7 K, 13850 kPa, x1 = 0.1488 | 849
322.7 K, 14020 kPa, x1 = 0.0744 | 812
322.7 K, 14030 kPa, x1 = 0.0981 | 836
322.7 K, 14170 kPa, x1 = 0.1488 | 851
322.7 K, 14470 kPa, x1 = 0.1488 | 853
322.7 K, 14590 kPa, x1 = 0.0981 | 843
322.7 K, 14600 kPa, x1 = 0.0744 | 820
322.7 K, 14740 kPa, x1 = 0.1488 | 856
322.7 K, 14960 kPa, x1 = 0.0744 | 824
322.7 K, 15170 kPa, x1 = 0.0981 | 849
322.7 K, 15190 kPa, x1 = 0.0744 | 828
324 K, 9110 kPa, x1 = 0.0483 | 519
324 K, 9140 kPa, x1 = 0.0483 | 527
324 K, 9190 kPa, x1 = 0.0483 | 537
324 K, 9250 kPa, x1 = 0.0483 | 546
324 K, 9310 kPa, x1 = 0.0483 | 556
324 K, 9370 kPa, x1 = 0.0483 | 566
324 K, 9450 kPa, x1 = 0.0483 | 576
324 K, 9540 kPa, x1 = 0.0483 | 587
324 K, 9630 kPa, x1 = 0.0483 | 599
324 K, 9750 kPa, x1 = 0.0483 | 611
324 K, 9850 kPa, x1 = 0.0483 | 620
324 K, 10010 kPa, x1 = 0.0483 | 633
324 K, 10200 kPa, x1 = 0.0483 | 646
324 K, 10420 kPa, x1 = 0.0483 | 660
324 K, 10690 kPa, x1 = 0.0483 | 674
324 K, 11030 kPa, x1 = 0.0483 | 689
324 K, 11440 kPa, x1 = 0.0483 | 705
324 K, 11960 kPa, x1 = 0.0483 | 721
324 K, 12550 kPa, x1 = 0.0483 | 738
324 K, 13030 kPa, x1 = 0.0483 | 749
